Test results taken from PMC3003687, “α-Galactosylceramide Analogs with Weak Agonist Activity for Human iNKT Cells Define New Candidate Anti-Inflammatory Agents” (PLoS ONE, 2010).

Experiments:
[1] = target: Human iNKT TCRs (Homo sapiens, UniProt A0A075B6N4+A0A0B4J240+P15813); assay: Equilibrium binding of analog-loaded hCD1d tetramers to iNKT cell clones
Description: For flow cytometric analysis, 6B11 (Vα24Jα18 specific) and mAbs specific for human CD3, CD4, CD8α, CD19, CD40L (CD154), CD56, CD69, GM-CSF & IFNγ were obtained from BD Biosciences. IL-4 and IL-13 specific mAbs were from Biolegend. Vα24 (C15) and Vβ11 (C21) specific mAb were from Immunotech. For antibody blocking in culture assays, non-specific isotype matched control, IL-2, IFNγ, IL-12p70 and CD40L specific mAbs without preservatives were obtained from BD Biosciences and IL-18 specific mAb from Medical & Biological Laboratories (MBL, Nagoya, Japan). Phycoerythrin and allophycocyanin labeled human CD1d tetramers were prepared in our laboratory as previously described. Curves of tetramer equilibrium binding constants and graphs were plotted using the Graphpad Prism Software (Version 5). KD values were calculated using the function non-linear fit (hyperbola, one binding site).
To characterize in more detail the iNKT cell TCR recognition of αGalCer analogs presented by human CD1d, we generated soluble and fluorescent tetrameric hCD1d molecules loaded with each of the glycolipid analogs. […] This was similar to the previously reported failure of mouse CD1d tetramer loaded with lysosulfatide to bind detectably to murine non-invariant and sulfatide specific NKT cells, despite a clear reactivity to this lipid upon presentation by APCs; [40]. […] To quantitate their binding avidities to iNKT cell TCRs, we used titration of analog-loaded hCD1d tetramers to determine equilibrium dissociation constants (KD), which are inversely proportional to avidity (Figure 3A and 3B).
Figure 3 Characterization of human iNKT cell TCR interactions with analog-loaded tetramers. (A) iNKT cell clones were stained with titrated amounts of hCD1d tetramers loaded with the indicated glycolipids (abbreviations as in legend to Figure 1), and the measured MFI values are plotted for selected glycolipids. (B) The equilibrium dissociation constants (KD, inversely proportional to TCR avidity) were determined as the concentrations of tetramers required to yield 50% of maximal binding. Data shown were obtained using the CD4^+ iNKT cell clone HDD3, and similar results (not shown) were obtained with a second CD4^+ clone (HDD11) and a CD4^−8^− double negative iNKT cell clone (HDE3). (C) Analysis of iNKT cell clones labeled with 20 nM of hCD1d tetramers which were loaded with variable excesses of analog to constant hCD1d (25 to 1000 fold molar excess of glycolipid to hCD1d protein). The measured MFI values were normalized as the percent of the maximum staining intensity obtained with each analog loaded tetramer. Data presented were generated with HDD3 (CD4+) iNKT cell clone, and similar results (not shown) were obtained with HDE3 (DN) clone.

[2] = test system: human iNKT cell clones; assay: Cytokine ELISA of human iNKT cell clones stimulated with glycolipid-pulsed CD1d-transfected HeLa cells; format: cell-based
Method: Capture ELISA assays were used for measurement of cytokine responses of human iNKT cells to αGalCer analogs. One day prior to the experiment, CD1d transfected HeLa cells were plated at 25×10^3 cells/well in 100 µL of medium in flat-bottom 96 well plates. Glycolipids were then added in 100 µL of medium to give final concentrations ranging from 0.05 to 10^4 nM. The APCs were incubated for approximately 18 hours with the glycolipids and then irradiated (10,000 Rad) and washed twice with PBS prior to addition of 25×10^3 iNKT cells well in 300 µL. Supernatants were harvested after 24 hours of co-culture and stored frozen at -20°C. After thawing, aliquots of the supernatants were assayed for specific cytokines by ELISA using capture and biotin-labeled detection antibody pairs specific for GM-CSF, IL-2, IL-4, IL-12p70 and IL-13 (all obtained from BD Biosciences), IFNγ (Thermo-Scientific) or IL-18 (MBL). Specific signals were developed using HRP- conjugated streptavidin (BD Biosciences) and Turbo TMB substrate (Thermo-Scientific). Supernatants were tested pure and/or diluted to give values within a quantitative linear standard curve generated with recombinant cytokines. Curves of dose-dependent cytokine responses and graphs were plotted using the Graphpad Prism Software. EC50 values were calculated using the function log (agonist) response with variable slope, and statistical analyses were carried out using the same software. To calculate concentration-dependent cytokine ratios, IL-4/IFNγ and IL-13/IFNγ ratios were calculated using cytokine values from which background levels (i.e. levels in cultures receiving DMSO vehicle alone) were subtracted. Ratios were calculated by dividing IL-4 or IL-13 concentrations in pg/mL by IFNγ concentration in ng/mL.

[3] = test system: human iNKT cells; conditions: cited from earlier work

Sequence of Human iNKT TCRs (P15813 20-301): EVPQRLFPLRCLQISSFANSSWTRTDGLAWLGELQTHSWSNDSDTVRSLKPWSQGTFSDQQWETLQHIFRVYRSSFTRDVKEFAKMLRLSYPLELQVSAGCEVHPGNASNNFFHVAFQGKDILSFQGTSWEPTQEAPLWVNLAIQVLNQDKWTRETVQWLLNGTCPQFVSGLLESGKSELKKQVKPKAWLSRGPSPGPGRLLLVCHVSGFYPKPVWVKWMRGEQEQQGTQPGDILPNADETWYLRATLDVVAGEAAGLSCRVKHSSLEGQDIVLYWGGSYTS
Sequence of Human iNKT TCRs (P01848 whole entry, further chain): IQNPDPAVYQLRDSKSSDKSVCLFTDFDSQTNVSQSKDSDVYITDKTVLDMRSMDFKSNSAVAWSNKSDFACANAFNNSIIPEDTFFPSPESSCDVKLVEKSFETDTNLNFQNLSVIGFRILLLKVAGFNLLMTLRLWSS
Sequence of Human iNKT TCRs (A0A0B4J240 22-114): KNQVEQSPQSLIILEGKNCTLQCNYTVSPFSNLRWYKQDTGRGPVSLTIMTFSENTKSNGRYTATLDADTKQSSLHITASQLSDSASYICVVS
Sequence of Human iNKT TCRs (P61769 21-119, further chain): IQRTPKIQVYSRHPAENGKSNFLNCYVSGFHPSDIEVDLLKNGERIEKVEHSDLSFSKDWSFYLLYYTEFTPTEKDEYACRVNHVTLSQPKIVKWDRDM
Sequence of Human iNKT TCRs (A0A075B6N4 22-114): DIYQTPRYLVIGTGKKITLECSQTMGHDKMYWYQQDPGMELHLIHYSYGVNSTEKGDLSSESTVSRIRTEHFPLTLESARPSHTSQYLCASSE

With `CCCCCCCCCCCCCCCCCCCCCCCC(=O)N[C@@H](CO[C@H]1O[C@H](CO)[C@H](O)[C@H](O)[C@H]1O)[C@H](O)[C@H](O)CCCCC` [OCH] the “staining of iNKT cell clones by analog-loaded hCD1d tetramers” value [1] was “only a weak staining intensity of a subset of iNKT cell clones tested”, the EC50 ([2]; Homo sapiens, iNKT, HDD3 clone, IL-4 levels did not reach a plateau) was greater than 10 µM and the “induction of IL-4” value ([2]; all clones tested) was “minimal”. The “concentration required to induce detectable IL-13 production or weak IFNγ secretion” value ([2]; all iNKT cell clones tested) was greater than 10 nM, the “iNKT cell clone cytokine response / agonist activity” value ([2]; dose range, IFNγ, IL-4, IL-13, clones HDD3, HDD11, HDE3, HDA7) was “much weaker reactivity” and the “ability to stimulate human iNKT cells” value [3] was “weak or no detectable ability to stimulate human iNKT cells”.
